Experimental data reported in US20100015249A1, “Antitumor agent containing 6'-amidino-2'-naphthyl 4-guanidinobenzoate or salt thereof” (priority 2005, published 2010).

Experiments:
IκBα = assay: Western blot of IκBα / phosphorylated IκBα in cytoplasm extracts; type: cell-based, human
Experimental: The human pancreas cancer cell line MDAPanc-28 was treated with various concentrations of FUT to examine the effect on IκBα. Cytoplasm extracts were extracted from cells treated with various concentrations of FUT according to the method generally known and Western blot was performed to detect each protein. More specifically, each lane was loaded with 50 μg of protein to perform electrophoresis. The gel was then transferred to a PVDF membrane (Osmonics). After blocking with PBS containing 5% nonfat milk for 2 hours at room temperature, primary antibody (anti-IκBα antibody) diluted with PBS containing 0.1% nonfat milk was added for reaction at 4° C. overnight. After rinsing with PBS, the PVDF membrane was then reacted with secondary antibody solution diluted with PBS containing 0.1% nonfat milk for 2 hours at room temperature. Proteins were detected by using Lumi-Light Western Blotting Substrate.

IKK1 = target: T1, IKK1 (Homo sapiens, UniProt O15111); assay: IKK immunoprecipitation kinase assay and Western blot after FUT treatment of cells; type: cell-based
T1 construct: endogenous in cells; host or cells: MDAPanc-28 (human pancreas cancer cell line)
Experimental: (§1) After FUT treatment, the human pancreas cancer cell line […]-28 was rinsed with ice-cold PBS to prepare 800 μg of cytoplasmic fraction. After adding glutathione sepharose beads (Amersham Pharmacia Biotech), the sample was invertedly mixed at 4° C. for 3 hours to remove non-specific absorption fractions. 4 μg of anti-IKK1/2 antibody (Santa Cruz Biotechnology) were added to the supernatant for reaction at 4° C. overnight. After adding glutathione sepharose beads, the sample was further mixed at 4° C. for 3 hours. The beads containing bound immunocomplex were rinsed twice with PBS and then subjected to immunoprecipitation and measurements of enzyme activity. To conduct the measurements of enzyme activity, the above mentioned beads were rinsed with kinase buffer (25 mM HEPES containing 150 mM NaCl, 25 mM beta-glycerophosphate and 10 mM MgCl2) to perform enzyme reaction. 5 uCi of ^32P-labeled y-ATP and 1 μg of the substrate GST-IκBα were reacted in the kinase buffer for 30 minutes at 37° C. The reaction was terminated by adding SDS sample buffer. The sample was analyzed by SDS-PAGE followed by autoradiography for detection.

IKK2 = target: T2, IKK2 (Homo sapiens, UniProt O14920); assay: as above; type: cell-based
T2 construct: endogenous in cells; host or cells: MDAPanc-28 (human pancreas cancer cell line)
Experimental: as §1

[1] = test system: human pancreas cancer cell line MDAPanc-28; assay: DNA fragmentation assay (apoptosis); type: cell-based; conditions: MDAPanc-28
Experimental: After adding 1000 U/ml of protease K, the sample was further incubated for 5 hours at 50° C. After extracting DNA with phenol/chloroform/isoamyl alcohol, isopropanol and ammonium acetate were added to the collected water-soluble fractions in order to collect precipitates. The precipitates were then rinsed with 70% ethanol and dissolved in Tris-EDTA buffer. Electrophoresis was performed on a 2% agarose gel and DNA bands were confirmed by using ethidium bromide. The present inventors examined the concomitant effect of FUT and TNF-α on apoptosis in cancer cells. After treatment with TNF-α for 24 hours, the human pancreas cancer cell line […]-28 was further cultured for 24 hours with various concentrations of FUT being added. Cells prepared were then subjected to an MTT assay according to the method generally known to calculate the cell survival rates. Also, DNA was extracted to perform a DNA fragmentation assay. More specifically, with regard to the MTT assay, each well was seeded with 2000 cells per 100 μl of culture medium in a 96-well microtiterplate, followed by the above mentioned treatment. […] The absorbance of the samples was measured at 570 nm by using a microplate reader. […] Two independent experiments were performed, and the average was calculated. […]

PEA3 = PEA3 expression after FUT treatment; type: cell-based, human; conditions: MDAPanc-28, over time
[2] = test system: human pancreas cancer cell line MDAPanc-28; assay: MTT assay of cell survival rate / living cell ratio; type: cell-based
Experimental: The present inventors examined the concomitant effect of FUT and TNF-α on apoptosis in cancer cells. After treatment with TNF-α for 24 hours, the human pancreas cancer cell line MDAPanc-28 was further cultured for 24 hours with various concentrations of FUT being added. Cells prepared were then subjected to an MTT assay according to the method generally known to calculate the cell survival rates. Also, DNA was extracted to perform a DNA fragmentation assay.
More specifically, with regard to the MTT assay, each well was seeded with 2000 cells per 100 μl of culture medium in a 96-well microtiterplate, followed by the above mentioned treatment. After plate centrifugation, each well received 5 mg/ml of MTT (Sigma) PBS solution instead of culture medium and was incubated for 4 hours at 37° C. After removing the supernatant, 100 μl of DMSO were added to dissolve the cells. The absorbance of the samples was measured at 570 nm by using a microplate reader. 8 wells were subjected to the same condition in this experiment. Two independent experiments were performed, and the average was calculated.
However, the agents are of different types with different mechanisms of action. Therefore, the present inventors examined the effect of each agent on the living cell ratio in the human pancreas cancer cell line MDAPanc-28 singularly. After being treated with each agent for 24 hours and 48 hours, the human pancreas cancer cell line MDAPanc-28 was subjected to a MTT assay. The MTT assay was performed by the method described in Example 9.

[3] = test system: human pancreas cancer cell line MDAPanc-28; assay: Apoptosis ratio by flow cytometry (propidium iodide, FACScan); type: cell-based; conditions: MDAPanc-28, pretreatment with the agent 3 hours then gemcitabine 48 hours, compared with gemcitabine alone
Experimental: The present inventors next examined the effect of these agents on apoptosis induction in the human pancreas cancer cell line MDAPanc-28. […] Flow cytometry was used to confirm the occurrence of apoptosis. Cells were collected after treatments with the agents and fixed in 70% ethanol at −20° C. for 24 hours. After rinsing with PBS, cells were suspended in PBS containing 50 μg/ml of propium iodide, 0.1% Triton X-100, 0.1% sodium citrate and 1 μg/ml of DNase free RNase. The samples were incubated at room temperature for 30 minutes and the amount of DNA was measured by using FACScan.

[4] = MDAPanc-28 cytoplasmic fraction, before and after FUT treatment
[5] = immunoprecipitate from FUT-treated MDAPanc-28, substrate GST-IκBα

T1 sequence (O15111 whole entry): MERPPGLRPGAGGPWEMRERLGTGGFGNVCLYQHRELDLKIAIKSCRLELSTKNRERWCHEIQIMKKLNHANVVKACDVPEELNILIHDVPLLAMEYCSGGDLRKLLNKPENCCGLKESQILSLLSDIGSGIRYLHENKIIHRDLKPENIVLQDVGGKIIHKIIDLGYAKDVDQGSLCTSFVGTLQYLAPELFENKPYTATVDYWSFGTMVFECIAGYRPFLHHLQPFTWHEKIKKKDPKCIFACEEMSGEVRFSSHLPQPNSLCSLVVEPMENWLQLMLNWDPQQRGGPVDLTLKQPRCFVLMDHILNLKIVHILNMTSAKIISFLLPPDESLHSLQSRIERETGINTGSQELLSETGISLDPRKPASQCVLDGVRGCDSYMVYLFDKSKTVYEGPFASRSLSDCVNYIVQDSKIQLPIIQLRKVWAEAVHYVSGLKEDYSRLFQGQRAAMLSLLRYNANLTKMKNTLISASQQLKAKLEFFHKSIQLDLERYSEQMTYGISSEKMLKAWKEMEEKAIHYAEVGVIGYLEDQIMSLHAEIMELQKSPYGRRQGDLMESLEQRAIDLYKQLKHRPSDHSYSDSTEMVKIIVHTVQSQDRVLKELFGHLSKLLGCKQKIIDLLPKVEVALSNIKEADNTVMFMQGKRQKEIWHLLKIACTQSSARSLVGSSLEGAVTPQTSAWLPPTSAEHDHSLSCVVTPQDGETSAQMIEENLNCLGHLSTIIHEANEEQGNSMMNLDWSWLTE
T1 sequence (O14920 whole entry partner): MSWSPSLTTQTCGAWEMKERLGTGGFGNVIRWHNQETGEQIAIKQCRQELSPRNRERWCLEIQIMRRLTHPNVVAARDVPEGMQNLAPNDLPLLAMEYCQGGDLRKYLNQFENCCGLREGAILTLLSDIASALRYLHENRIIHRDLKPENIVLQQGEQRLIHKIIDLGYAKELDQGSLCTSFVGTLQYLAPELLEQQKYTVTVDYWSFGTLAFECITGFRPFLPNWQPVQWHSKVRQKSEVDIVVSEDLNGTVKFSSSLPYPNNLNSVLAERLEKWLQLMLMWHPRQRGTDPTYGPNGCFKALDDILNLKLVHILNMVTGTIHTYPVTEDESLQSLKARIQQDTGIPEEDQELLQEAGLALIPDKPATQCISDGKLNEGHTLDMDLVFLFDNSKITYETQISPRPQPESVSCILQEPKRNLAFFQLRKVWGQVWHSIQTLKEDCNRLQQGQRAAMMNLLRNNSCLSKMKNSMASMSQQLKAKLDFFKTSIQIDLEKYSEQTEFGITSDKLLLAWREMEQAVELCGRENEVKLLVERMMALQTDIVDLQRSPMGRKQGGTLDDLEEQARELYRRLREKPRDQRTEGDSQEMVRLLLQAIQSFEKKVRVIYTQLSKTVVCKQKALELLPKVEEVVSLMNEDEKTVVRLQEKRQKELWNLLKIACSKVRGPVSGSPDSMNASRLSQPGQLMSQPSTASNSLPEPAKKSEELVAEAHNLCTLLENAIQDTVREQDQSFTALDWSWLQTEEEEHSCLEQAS
T1 sequence (Q9Y6K9 whole entry partner): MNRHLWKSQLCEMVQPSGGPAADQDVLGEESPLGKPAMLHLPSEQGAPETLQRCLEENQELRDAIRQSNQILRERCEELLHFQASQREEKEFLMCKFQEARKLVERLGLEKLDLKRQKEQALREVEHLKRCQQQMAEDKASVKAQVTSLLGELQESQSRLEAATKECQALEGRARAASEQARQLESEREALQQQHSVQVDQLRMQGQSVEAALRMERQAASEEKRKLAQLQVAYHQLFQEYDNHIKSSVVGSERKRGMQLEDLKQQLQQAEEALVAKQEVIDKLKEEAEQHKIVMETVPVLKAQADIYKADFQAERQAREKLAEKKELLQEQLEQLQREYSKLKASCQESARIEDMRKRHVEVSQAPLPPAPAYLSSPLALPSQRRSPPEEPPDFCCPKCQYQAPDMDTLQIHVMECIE
T2 sequence (O14920 whole entry): as the sequence (O14920 whole entry partner) above
T2 sequence (O15111 whole entry partner): as the sequence (O15111 whole entry) above
T2 sequence (Q9Y6K9 whole entry partner): as the sequence (Q9Y6K9 whole entry partner) above

N=C(N)c1ccc2cc(OC(=O)c3ccc(N=C(N)N)cc3)ccc2c1 [FUT, 6-amidino-2-naphthyl p-guanidinobenzoate dimethanesulfonate]
level of phosphorylated IκBα in the cytoplasm (IκBα; MDAPanc-28, over time after adding FUT): declines overtime
level of IκBα in the cytoplasm over time (IκBα; MDAPanc-28, time after addition of FUT up to 48 hours): increases along the progression of NF-κB inactivation up to 24 hours after addition of FUT and then is restored to a steady-state level after 48 hours
level of IκBα in the cytoplasm (IκBα; MDAPanc-28, various concentrations of FUT): increased by FUT in a concentration-dependent manner
expression level of IKK1 (IKK1; [4]): remain intact
enzyme activity of IKK1 (IKK1; [5]): reduces the enzyme activities of IKK1 and IKK2
expression level of IKK2 (IKK2; [4]): remain intact
enzyme activity of IKK2 (IKK2; [5]): reduces the enzyme activities of IKK1 and IKK2
concentration at which DNAs were fragmented (apoptosis induction) [1]: ≥ 40 µg/mL
PEA3 expression (PEA3): increased PEA3 expression overtime
cell survival rate ([2]; MDAPanc-28, TNF-α 24 hours then various concentrations of FUT 24 hours, MTT, compared with control cells): significantly declined
speed of inhibitory effect on proliferation ([2]; MDAPanc-28, comparison of FUT with PS1145): more rapid inhibitory effect than PS1145
cell proliferation / living cell ratio ([2]; MDAPanc-28, single agent, 24 hours and 48 hours, MTT): inhibited in a FUT concentration-dependent manner
living cell ratio at 48 hours compared to 24 hours ([2]; MDAPanc-28, single agent, MTT): slightly increased at 48 hours compared to the ratio at 24 hours
apoptosis induction in combination with gemcitabine [3]: further enhanced the effect on apoptosis induction
